Assays:
[1] = molar heat capacity at constant pressure; settings: Liquid
[2] = Liquid; for kinematic viscosity: Capillary tube (Ostwald / Ubbelohde) method; for mass density: 1000 kPa, Vibrating tube method

CCOCCOCC [1,2-diethoxyethane]
Settings | kinematic viscosity [m2/s] | molar heat capacity at constant pressure [J/K/mol]
[1], 312.57 K, 1 kPa | – | 264.59
[1], 322.47 K, 1 kPa | – | 265.54
[1], 332.37 K, 1 kPa | – | 268.37
[1], 342.27 K, 1 kPa | – | 270.86
[1], 352.18 K, 1 kPa | – | 273.57
[1], 362.08 K, 1 kPa | – | 276.17
[1], 371.98 K, 1 kPa | – | 280.31
[1], 381.88 K, 1 kPa | – | 283.03
[1], 391.78 K, 1 kPa | – | 286.22
[1], 401.68 K, 1 kPa | – | 289.88
[1], 411.58 K, 1 kPa | – | 293.43
[1], 421.48 K, 1 kPa | – | 296.97
[2], 283.15 K, 101.3 kPa | 9.5e-07 | –
[2], 293.15 K, 101.3 kPa | 8.22e-07 | –
[2], 303.15 K, 101.3 kPa | 7.28e-07 | –
[2], 313.15 K, 101.3 kPa | 6.48e-07 | –
[2], 323.15 K, 101.3 kPa | 5.84e-07 | –
[2], 333.15 K, 101.3 kPa | 5.32e-07 | –
[2], 343.15 K, 101.3 kPa | 4.87e-07 | –

[2]
Settings | mass density [kg/m3]
283.15 K | 862.9
293.15 K | 852.8
303.15 K | 842.6
313.15 K | 832.3
323.15 K | 822
333.15 K | 811.6
343.15 K | 801.1
353.15 K | 790.5
363.15 K | 779.6
373.15 K | 768.6
383.15 K | 757.2
393.15 K | 745.8
403.15 K | 734
413.15 K | 721.8
423.15 K | 709.4

COCC(C)OCC(C)OC (configuration not stated) [2-methoxy-1-(2-methoxy-1-methylethoxy)propane]
Settings | kinematic viscosity [m2/s] | molar heat capacity at constant pressure [J/K/mol]
[1], 312.57 K, 1000 kPa | – | 328.67
[1], 322.47 K, 1000 kPa | – | 332.56
[1], 332.37 K, 1000 kPa | – | 336.62
[1], 342.27 K, 1000 kPa | – | 340.35
[1], 352.18 K, 1000 kPa | – | 345.22
[1], 362.08 K, 1000 kPa | – | 349.92
[1], 371.98 K, 1000 kPa | – | 354.14
[1], 381.88 K, 1000 kPa | – | 359.49
[1], 391.78 K, 1000 kPa | – | 364.69
[1], 401.68 K, 1000 kPa | – | 369.71
[1], 411.58 K, 1000 kPa | – | 373.93
[1], 421.48 K, 1000 kPa | – | 381.23
[2], 283.15 K, 101.33 kPa | 1.41e-06 | –
[2], 293.15 K, 101.33 kPa | 1.2e-06 | –
[2], 303.15 K, 101.33 kPa | 1.03e-06 | –
[2], 313.15 K, 101.33 kPa | 9.03e-07 | –
[2], 323.15 K, 101.33 kPa | 8.01e-07 | –
[2], 333.15 K, 101.33 kPa | 7.19e-07 | –
[2], 343.15 K, 101.33 kPa | 6.5e-07 | –
[2], 353.15 K, 101.33 kPa | 5.93e-07 | –
[2], 363.15 K, 101.33 kPa | 5.51e-07 | –
[2], 373.15 K, 101.33 kPa | 5.06e-07 | –
[2], 383.15 K, 101.33 kPa | 4.69e-07 | –
[2], 393.15 K, 101.33 kPa | 4.37e-07 | –
[2], 403.15 K, 101.33 kPa | 4.07e-07 | –
[2], 413.15 K, 101.33 kPa | 3.81e-07 | –
[2], 423.15 K, 101.33 kPa | 3.59e-07 | –

[2]
Settings | mass density [kg/m3]
283.15 K | 913
293.15 K | 903.4
303.15 K | 894
313.15 K | 884.8
323.15 K | 875.4
333.15 K | 866
343.15 K | 856.5
353.15 K | 846.9
363.15 K | 837
373.15 K | 827.2
383.15 K | 817.2
393.15 K | 807.2
403.15 K | 797.1
413.15 K | 786.8
423.15 K | 776.3

CCCCOCCOCCOCCOCCCC [5,8,11,14-tetraoxaoctadecane]
Settings | kinematic viscosity [m2/s] | molar heat capacity at constant pressure [J/K/mol]
[1], 312.57 K, 1000 kPa | – | 544.45
[1], 322.47 K, 1000 kPa | – | 547.86
[1], 332.37 K, 1000 kPa | – | 553.9
[1], 342.27 K, 1000 kPa | – | 559.14
[1], 352.18 K, 1000 kPa | – | 564.65
[1], 362.08 K, 1000 kPa | – | 571.48
[1], 371.98 K, 1000 kPa | – | 578.82
[1], 381.88 K, 1000 kPa | – | 584.33
[1], 391.78 K, 1000 kPa | – | 589.58
[1], 401.68 K, 1000 kPa | – | 597.71
[1], 411.58 K, 1000 kPa | – | 603.75
[1], 421.48 K, 1000 kPa | – | 612.15
[2], 283.15 K, 101.33 kPa | 5.42e-06 | –
[2], 293.15 K, 101.33 kPa | 4.16e-06 | –
[2], 303.15 K, 101.33 kPa | 3.3e-06 | –
[2], 313.15 K, 101.33 kPa | 2.7e-06 | –
[2], 323.15 K, 101.33 kPa | 2.25e-06 | –
[2], 333.15 K, 101.33 kPa | 1.92e-06 | –
[2], 343.15 K, 101.33 kPa | 1.67e-06 | –
[2], 353.15 K, 101.33 kPa | 1.46e-06 | –
[2], 363.15 K, 101.33 kPa | 1.3e-06 | –
[2], 373.15 K, 101.33 kPa | 1.17e-06 | –
[2], 383.15 K, 101.33 kPa | 1.04e-06 | –
[2], 393.15 K, 101.33 kPa | 9.49e-07 | –
[2], 403.15 K, 101.33 kPa | 8.68e-07 | –
[2], 413.15 K, 101.33 kPa | 7.98e-07 | –
[2], 423.15 K, 101.33 kPa | 7.37e-07 | –

[2]
Settings | mass density [kg/m3]
283.15 K | 926.1
293.15 K | 917.7
303.15 K | 909.4
313.15 K | 901.2
323.15 K | 893
333.15 K | 884.8
343.15 K | 876.5
353.15 K | 868.2
363.15 K | 859.8
373.15 K | 851.4
383.15 K | 843
393.15 K | 834.5
403.15 K | 826.1
413.15 K | 817.6
423.15 K | 809.1

CCCCOCCOCCOCCCC [5,8,11-trioxapentadecane]
Settings | kinematic viscosity [m2/s] | molar heat capacity at constant pressure [J/K/mol]
[1], 312.57 K, 1000 kPa | – | 456.53
[1], 322.47 K, 1000 kPa | – | 460.9
[1], 332.37 K, 1000 kPa | – | 465.49
[1], 342.27 K, 1000 kPa | – | 470.51
[1], 352.18 K, 1000 kPa | – | 475.75
[1], 362.08 K, 1000 kPa | – | 480.33
[1], 371.98 K, 1000 kPa | – | 486.88
[1], 381.88 K, 1000 kPa | – | 493.65
[1], 391.78 K, 1000 kPa | – | 500.42
[1], 401.68 K, 1000 kPa | – | 505.44
[1], 411.58 K, 1000 kPa | – | 512.21
[1], 421.48 K, 1000 kPa | – | 517.89
[2], 283.15 K, 101.33 kPa | 3.36e-06 | –
[2], 293.15 K, 101.33 kPa | 2.69e-06 | –
[2], 303.15 K, 101.33 kPa | 2.21e-06 | –
[2], 313.15 K, 101.33 kPa | 1.86e-06 | –
[2], 323.15 K, 101.33 kPa | 1.59e-06 | –
[2], 333.15 K, 101.33 kPa | 1.38e-06 | –
[2], 343.15 K, 101.33 kPa | 1.22e-06 | –
[2], 353.15 K, 101.33 kPa | 1.08e-06 | –
[2], 363.15 K, 101.33 kPa | 9.68e-07 | –
[2], 373.15 K, 101.33 kPa | 8.72e-07 | –
[2], 383.15 K, 101.33 kPa | 7.95e-07 | –
[2], 393.15 K, 101.33 kPa | 7.28e-07 | –
[2], 403.15 K, 101.33 kPa | 6.7e-07 | –
[2], 413.15 K, 101.33 kPa | 6.21e-07 | –
[2], 423.15 K, 101.33 kPa | 5.78e-07 | –

[2]
Settings | mass density [kg/m3]
283.15 K | 891.6
293.15 K | 883.2
303.15 K | 875
313.15 K | 866.8
323.15 K | 858.5
333.15 K | 850.4
343.15 K | 842.1
353.15 K | 833.7
363.15 K | 824.9
373.15 K | 816.5
383.15 K | 807.9
393.15 K | 799.4
403.15 K | 790.8
413.15 K | 782.1
423.15 K | 773.3

CCOCCOCCOCC [diethylene glycol diethyl ether]
Settings | kinematic viscosity [m2/s] | molar heat capacity at constant pressure [J/K/mol]
[1], 312.57 K, 1000 kPa | – | 349.11
[1], 322.47 K, 1000 kPa | – | 351.22
[1], 332.37 K, 1000 kPa | – | 353.33
[1], 342.27 K, 1000 kPa | – | 355.44
[1], 352.18 K, 1000 kPa | – | 358.68
[1], 362.08 K, 1000 kPa | – | 360.79
[1], 371.98 K, 1000 kPa | – | 364.85
[1], 381.88 K, 1000 kPa | – | 368.9
[1], 391.78 K, 1000 kPa | – | 372.15
[1], 401.68 K, 1000 kPa | – | 377.01
[1], 411.58 K, 1000 kPa | – | 380.75
[1], 421.48 K, 1000 kPa | – | 384.8
[2], 283.15 K, 101.33 kPa | 1.84e-06 | –
[2], 293.15 K, 101.33 kPa | 1.5e-06 | –
[2], 303.15 K, 101.33 kPa | 1.27e-06 | –
[2], 313.15 K, 101.33 kPa | 1.09e-06 | –
[2], 323.15 K, 101.33 kPa | 9.56e-07 | –
[2], 333.15 K, 101.33 kPa | 8.48e-07 | –
[2], 343.15 K, 101.33 kPa | 7.6e-07 | –
[2], 353.15 K, 101.33 kPa | 6.91e-07 | –
[2], 363.15 K, 101.33 kPa | 6.33e-07 | –
[2], 373.15 K, 101.33 kPa | 5.77e-07 | –
[2], 383.15 K, 101.33 kPa | 5.32e-07 | –
[2], 393.15 K, 101.33 kPa | 4.93e-07 | –
[2], 403.15 K, 101.33 kPa | 4.59e-07 | –
[2], 413.15 K, 101.33 kPa | 4.29e-07 | –
[2], 423.15 K, 101.33 kPa | 4.02e-07 | –

[2]
Settings | mass density [kg/m3]
283.15 K | 917.4
293.15 K | 907.9
303.15 K | 898.4
313.15 K | 889
323.15 K | 879.5
333.15 K | 870
343.15 K | 860.2
353.15 K | 850
363.15 K | 840.2
373.15 K | 830.3
383.15 K | 820.4
393.15 K | 810.3
403.15 K | 800
413.15 K | 789.7
423.15 K | 779.2

Source: the NIST ThermoML archive (doi:10.1021/je025606c)
